From patent US20220281866A1, “5,8-DISUBSTITUTED-[1,2,4]TRIAZOLO[1,5-A]PYRIDINYL AND 5,8-DISUBSTITUTED-IMIDAZO[1,2-A]PYRIDINE DERIVATIVES USEFUL AS INHIBITORS OF ENTEROPEPTIDASE” (Janssen Pharmaceutica NV, priority 2019, published 2022) come the findings set out here.

Assay [1] has as its target T1, Recombinant full-length human EP (Enteropeptidase) (Homo sapiens, UniProt P98073).
T1 construct: Recombinant full-length human EP (PeproTech, Cat #450-48C); purchased PeproTech 450-48C
Briefly: In vitro inhibition potencies against Enteropeptidase (EP), fluorescent peptide GDDDDK-naphthylamine substrate. In kind it is biochemical. The conditions noted are these: 300 μM substrate, 1.25 nM EP; for inhibition at 0.1 µM: compound 0.1 μM; for inhibition at 1 µM: compound 1 μM; for inhibition at 10 µM: compound 10 μM. On the procedure:
In vitro inhibition potencies against Enteropeptidase (EP) Recombinant full-length human EP (PeproTech, Cat #450-48C) was used in this biochemical assay, with a quenched fluorescent labeled peptide GDDDDK-naphthylamine (NA) (Sigma, Cat #G5261) as the substrate in a buffer of 50 mM Tris-HCl pH 7.4, 200 mM NaCl and 0.01% Triton X-100. The enzyme activity was measured by following the formation of the cleavage product […](NA) by monitoring the fluorescence intensity (FI) at excitation/emission wavelengths of 340/410 nm. The steady-state kinetic characterization studies yielded an average of KM to be 412±22 μM and the apparent turnover number kcat^app of 11.8±0.4 s^−1 (N=2).
Compound inhibition studies were carried out under the conditions of 300 μM substrate and 1.25 nM EP. Reaction progress curves were collected by reading the FI at 340/410 nm continuously for 1 hour at an interval of 1 minute.
To screen compounds of formula (I), inhibition was studied at 4 different compound concentrations of 10 μM, 1 μM, 0.1 μM and 0.01 μM. Initial velocity of the reaction was determined, and percent of inhibition was calculated by comparing to the reaction in the absence of compound.
Accurate measurements of the inhibition potencies of selected compounds were studied in a 12-point dose-dependence fashion. […] Compound potency was measured by determining the inactivation rate constant (kobs) following the reaction change from the initial velocity vi to the steady-state velocity vs at various compound concentrations. The inactivation rate constants (kobs), were derived by fitting the reaction progress curves to eq. 1.
where YT is the detection signal of the reaction at time t, vi and vs are the initial and the steady-state velocities of the reaction, t is the reaction time. Y0 is the background signal (when t=0).
Compound binding mechanism was shown by plotting kobs˜[compound]. Hyperbolic fitting to eq. 2
conforms to a two-step binding mechanism as shown in Scheme BIO-1.
The plateau of the curve is the forward step rate constant of the isomerization step k3, KI^app is the inhibitor concentration that leads to half-maximal rate of inhibition of enzyme under the assay conditions. Compound inhibition potency was reported by the value of k3/KI^app.
A linear dependence of eq.3
indicates a one-step binding mechanism as shown in Scheme BIO-2
Slope of the linear fit gives the second-order rate constant of the compound binding k1, which is used to represent the compound inhibition potency.
(§1) Representative compounds of the present invention were tested according to the procedures as described in Biological Example 1 and Biological Example 2 above, with results as listed in Table 2 and Table 3, below. Results are reported as the %-inhibition (% Inh) or Kinact/KI value. Variability for the functional assay was typically within 20%. For the column headed Kinact/KI the listed measurement is the result of duplicate dilutions.

The next assay addresses T2, Bovine trypsin (Bos taurus, UniProt P00760).
T2 construct: purchased Sigma-Aldrich T1426
T2 sequence (P00760 24-246): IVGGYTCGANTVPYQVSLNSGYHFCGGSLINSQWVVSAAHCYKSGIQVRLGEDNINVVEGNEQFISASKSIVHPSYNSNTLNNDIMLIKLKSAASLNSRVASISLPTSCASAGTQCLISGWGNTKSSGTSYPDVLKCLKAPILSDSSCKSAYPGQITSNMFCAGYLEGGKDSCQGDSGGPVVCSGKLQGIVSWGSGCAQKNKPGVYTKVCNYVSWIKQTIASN
Kind of assay: Biochemical Assay of Trypsin (T), H-D-CHA-AR-AMC substrate. The conditions noted are these: 15 μM substrate, 0.025 nM Trypsin; for inhibition at 0.1 µM: compound 0.1 μM; for inhibition at 1 µM: compound 1 μM; for inhibition at 10 µM: compound 10 μM. On the procedure: Bovine trypsin was purchased from Sigma-Aldrich (Cat No. T1426), and 7-amino-4-methylcoumarin (AMC) conjugated peptide H-D-cyclohexylalanine (D-CHA)-AR-AMC was used as the substrate in the assay. The protease activity of trypsin was followed by measuring AMC production by the emission fluorescence intensity of AMC at 460 nm with the excitation at 375 nm, in the same assay buffer as used in the EP assay. The enzyme kinetic characterization studies yielded an average of KM to be 3.9±0.5 μM and the apparent turnover number kcat^app of 33.8±0.4 s^−1 (N=2).
Studies of compound inhibition against T were carried out under the conditions of 15 μM substrate and 0.025 nM Trypsin. Reaction progress curves were collected by reading the FI at 375/460 nm continuously for 1 hour at an interval of 1 minute. Similar to the procedure for Enteropeptidase described above, compounds of formula (I) were screened against Trypsin at 4 different concentrations to obtain the percent of inhibition at 10 μM, 1 μM, 0.1 μM and 0.01 μM, and accurate potencies of selected compounds against Trypsin were derived from detailed 12-point dose-dependence studies for time-dependent inhibitors.
as §1

The inhibition is the relative decrease from the control value, in per cent.

T1 sequence (P98073 whole entry): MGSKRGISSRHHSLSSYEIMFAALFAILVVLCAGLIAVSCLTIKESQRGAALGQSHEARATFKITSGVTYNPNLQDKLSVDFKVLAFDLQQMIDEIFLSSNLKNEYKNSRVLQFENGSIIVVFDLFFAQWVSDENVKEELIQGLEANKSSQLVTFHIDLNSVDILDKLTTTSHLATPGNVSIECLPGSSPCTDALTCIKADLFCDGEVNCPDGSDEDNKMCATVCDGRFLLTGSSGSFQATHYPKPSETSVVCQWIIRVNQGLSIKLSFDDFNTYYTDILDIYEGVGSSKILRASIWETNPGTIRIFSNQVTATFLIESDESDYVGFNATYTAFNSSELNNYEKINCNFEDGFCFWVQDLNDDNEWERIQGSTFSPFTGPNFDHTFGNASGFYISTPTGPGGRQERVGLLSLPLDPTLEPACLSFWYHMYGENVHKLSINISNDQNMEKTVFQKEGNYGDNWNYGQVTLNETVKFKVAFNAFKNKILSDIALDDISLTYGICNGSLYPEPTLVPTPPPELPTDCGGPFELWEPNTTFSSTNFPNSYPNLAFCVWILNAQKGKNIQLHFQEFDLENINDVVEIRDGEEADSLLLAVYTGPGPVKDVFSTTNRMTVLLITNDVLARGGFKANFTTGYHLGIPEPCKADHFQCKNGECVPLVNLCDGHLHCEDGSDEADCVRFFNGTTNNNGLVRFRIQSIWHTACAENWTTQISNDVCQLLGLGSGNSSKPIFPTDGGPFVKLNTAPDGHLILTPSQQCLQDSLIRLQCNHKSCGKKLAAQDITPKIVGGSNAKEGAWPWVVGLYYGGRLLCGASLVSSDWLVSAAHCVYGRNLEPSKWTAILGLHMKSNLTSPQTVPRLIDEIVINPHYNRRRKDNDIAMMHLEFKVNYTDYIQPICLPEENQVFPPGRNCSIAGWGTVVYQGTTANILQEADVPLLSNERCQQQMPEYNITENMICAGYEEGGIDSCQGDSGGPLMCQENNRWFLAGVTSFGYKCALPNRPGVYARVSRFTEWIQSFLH

Turning to `N=C(N)Nc1ccc(C(=O)Oc2ccc(CC(=O)O)n3ncnc23)cc1F` [Compound 14, 2-(8-(3-fluoro-4-guanidinobenzoyloxy)-[1,2,4]triazolo[1,5-a]pyridin-5-yl)acetic acid], the kinact/KI in assay [1] (12-point dose-dependence, time-dependent inhibition, duplicate dilutions, read-out: kinact/KI^App) was determined as 72800 M⁻¹ s⁻¹. In assay [1], the inhibition at 0.1 µM stood at 96.8%, the inhibition at 1 µM was found to be 100% and the inhibition at 10 µM was found to be 100%. For the same compound, at Bovine trypsin (12-point dose-dependence, time-dependent inhibition, duplicate dilutions, read-out: Kinact/KI^App), the kinact/KI turned out to be 69700 M⁻¹ s⁻¹. Moreover, at Bovine trypsin, the inhibition at 0.1 µM worked out at 87.6%, the inhibition at 1 µM was determined as 100% and the inhibition at 10 µM is 100%.

`Cc1cc(C(=O)Oc2ccc(CC(=O)O)n3ncnc23)ccc1NC(=N)N` [Compound 15, 2-(8-(4-guanidino-3-methylbenzoyloxy)-[1,2,4]triazolo[1,5-a]pyridin-5-yl)acetic acid]: in assay [1], the inhibition at 0.1 µM worked out at 1.3%, the inhibition at 1 µM was 6.3% and the inhibition at 10 µM was found to be 36.7%. Moreover, on Bovine trypsin, the inhibition at 0.1 µM was -0.1%, the inhibition at 1 µM is 8.4% and the inhibition at 10 µM turned out to be 35.5%.

As for `N=C(N)Nc1ccc(C(=O)Oc2ccc(CC(=O)O)n3ncnc23)cc1Cl` [Compound 16, 2-(8-(3-chloro-4-guanidinobenzoyloxy)-[1,2,4]triazolo[1,5-a]pyridin-5-yl)acetic], in assay [1], the inhibition at 0.1 µM worked out at 18.7%, the inhibition at 1 µM turned out to be 84.4% and the inhibition at 10 µM came out at 101%. Also, at Bovine trypsin, the inhibition at 0.1 µM stood at 6.3%, the inhibition at 1 µM is 56.6% and the inhibition at 10 µM turned out to be 99.8%.

For `N=C(N)Nc1ccc(C(=O)Oc2ccc(C3OC(=O)NC3=O)n3ncnc23)cc1` (centres unmarked) [Compound 17, 5-(2,4-dioxooxazolidin-5-yl)-[1,2,4]triazolo[1,5-a]pyridin-8-yl 4-guanidinobenzoate], in assay [1], the inhibition at 0.1 µM is 73%, the inhibition at 1 µM is 101% and the inhibition at 10 µM came out at 100%. At Bovine trypsin, the inhibition at 0.1 µM was 99.8%, the inhibition at 1 µM was found to be 100% and the inhibition at 10 µM is 100%.

Turning to `N=C(N)Nc1ccc(C(=O)Oc2ccc(CC(=O)O)n3ncnc23)c(Cl)c1` [Compound 18, 2-(8-(2-chloro-4-guanidinobenzoyloxy)-[1,2,4]triazolo[1,5-a]pyridin-5-yl)acetic acid], in assay [1], the inhibition at 0.1 µM is 81.2%, the inhibition at 1 µM turned out to be 100% and the inhibition at 10 µM came out at 100%. Moreover, at Bovine trypsin, the inhibition at 0.1 µM came out at 43.5%, the inhibition at 1 µM was determined as 97.6% and the inhibition at 10 µM stood at 99.9%.

In the case of `Cc1cc(NC(=N)N)ccc1C(=O)Oc1ccc(CC(=O)O)n2ncnc12` [Compound 19, 2-(8-(4-guanidino-2-methylbenzoyloxy)-[1,2,4]triazolo[1,5-a]pyridin-5-yl)acetic acid], in assay [1], the inhibition at 0.1 µM was determined as 10.3%, the inhibition at 1 µM turned out to be 59.9% and the inhibition at 10 µM amounted to 101%. At Bovine trypsin, the inhibition at 0.1 µM came to 9.5%, the inhibition at 1 µM worked out at 48.9% and the inhibition at 10 µM was 99.7%.

As for `N=C(N)Nc1ccc(C(=O)Oc2ccc(CC(=O)O)n3ncnc23)c(C(F)(F)F)c1` [Compound 20, 2-(8-(4-guanidino-2-(trifluoromethyl)benzoyloxy)-[1,2,4]triazolo [1,5-a]pyridin-5-yl)acetic acid], in assay [1], the inhibition at 0.1 µM worked out at 4.1%, the inhibition at 1 µM turned out to be 38.5% and the inhibition at 10 µM was 98.9%. For the same compound, on Bovine trypsin, the inhibition at 0.1 µM worked out at 2.3%, the inhibition at 1 µM was 16.6% and the inhibition at 10 µM was determined as 88.7%.

In the case of `N=C(N)Nc1ccc(C(=O)Oc2ccc(CC(=O)O)n3ncnc23)c(F)c1` [Compound 21, 2-(8-(2-fluoro-4-guanidinobenzoyloxy)-[1,2,4]triazolo[1,5-a]pyridin-5-yl)acetic acid], in assay [1], the inhibition at 0.1 µM is 99.4%, the inhibition at 1 µM is 100% and the inhibition at 10 µM turned out to be 100%. Moreover, on Bovine trypsin, the inhibition at 0.1 µM came out at 97.1%, the inhibition at 1 µM is 99.7% and the inhibition at 10 µM turned out to be 100%.

In the case of `N#Cc1cc(C(=O)Oc2ccc(CC(=O)O)n3ncnc23)ccc1NC(=N)N` [Compound 22, 2-(8-(3-cyano-4-guanidinobenzoyloxy)-[1,2,4]triazolo[1,5-a]pyridin-5-yl)acetic acid], in assay [1], the inhibition at 0.1 µM was -3%, the inhibition at 1 µM was -6.3% and the inhibition at 10 µM is 32.1%. Also, on Bovine trypsin, the inhibition at 0.1 µM amounted to 0.9%, the inhibition at 1 µM was determined as 12.3% and the inhibition at 10 µM was determined as 29.9%.

Regarding `N=C(N)Nc1ccc(C(=O)Oc2ccc(CC(=O)O)n3ncnc23)cc1O` [Compound 23, 2-(8-(4-guanidino-3-hydroxybenzoyloxy)-[1,2,4]triazolo[1,5-a]pyridin-5-yl)acetic acid], in assay [1], the inhibition at 0.1 µM stood at 34.3%, the inhibition at 1 µM is 92.1% and the inhibition at 10 µM amounted to 101%. Moreover, at Bovine trypsin, the inhibition at 0.1 µM was 12.4%, the inhibition at 1 µM came out at 73.1% and the inhibition at 10 µM came to 100%.

On to `N=C(N)Nc1ccc(C(=O)Oc2ccc(CC(=O)O)n3ncnc23)c2ccoc12` [Compound 24], for which, in assay [1], the inhibition at 0.1 µM was found to be 36.3%, the inhibition at 1 µM stood at 98.8% and the inhibition at 10 µM was determined as 100%. Also, on Bovine trypsin, the inhibition at 0.1 µM amounted to 14.6%, the inhibition at 1 µM is 80% and the inhibition at 10 µM stood at 99.9%.

As to `N=C(N)Nc1ccc(C(=O)Oc2cc(CCC(=O)O)cn3ncnc23)cc1` [Compound 25, 3-(8-(4-guanidinobenzoyloxy)-[1,2,4]triazolo[1,5-a]pyridin-6-yl)propanoic acid], in assay [1], the inhibition at 0.1 µM was 45.2%, the inhibition at 1 µM was determined as 102% and the inhibition at 10 µM was 101%. Besides, at Bovine trypsin, the inhibition at 0.1 µM was 99.2%, the inhibition at 1 µM stood at 100% and the inhibition at 10 µM worked out at 100%.

`N=C(N)Nc1ccc(C(=O)Oc2cc(CC(=O)O)cn3ncnc23)cc1` [Compound 26, 2-(8-(4-guanidinobenzoyloxy)-[1,2,4]triazolo[1,5-a]pyridin-6-yl)acetic acid]: in assay [1], the inhibition at 0.1 µM came out at 13.2%, the inhibition at 1 µM came to 58.8% and the inhibition at 10 µM came to 101%. At Bovine trypsin, the inhibition at 0.1 µM was 81.7%, the inhibition at 1 µM turned out to be 100% and the inhibition at 10 µM stood at 100%.
